Results on one substance are retold here after patent publication US8809331B2 (Genentech, Inc., priority 2011, dated 2014).

Broadly, the pKi is the Ki on a negative log10 scale, so that one unit is a factor of ten. A low value points to a high Ki.

pKi: −log10 of the molar value.

The assay addresses T1, LRRK2 (Homo sapiens, UniProt Q5S007, G2019S).
T1 construct: purchased Invitrogen PV4882
Nature of the assay: In Vitro LRRK2 LabChip Assay (LRRK2 Ki). In kind it is biochemical. The note with it: Table 6 compounds (formula II/III, fused ring).

T1 sequence (Q5S007 whole entry G2019S): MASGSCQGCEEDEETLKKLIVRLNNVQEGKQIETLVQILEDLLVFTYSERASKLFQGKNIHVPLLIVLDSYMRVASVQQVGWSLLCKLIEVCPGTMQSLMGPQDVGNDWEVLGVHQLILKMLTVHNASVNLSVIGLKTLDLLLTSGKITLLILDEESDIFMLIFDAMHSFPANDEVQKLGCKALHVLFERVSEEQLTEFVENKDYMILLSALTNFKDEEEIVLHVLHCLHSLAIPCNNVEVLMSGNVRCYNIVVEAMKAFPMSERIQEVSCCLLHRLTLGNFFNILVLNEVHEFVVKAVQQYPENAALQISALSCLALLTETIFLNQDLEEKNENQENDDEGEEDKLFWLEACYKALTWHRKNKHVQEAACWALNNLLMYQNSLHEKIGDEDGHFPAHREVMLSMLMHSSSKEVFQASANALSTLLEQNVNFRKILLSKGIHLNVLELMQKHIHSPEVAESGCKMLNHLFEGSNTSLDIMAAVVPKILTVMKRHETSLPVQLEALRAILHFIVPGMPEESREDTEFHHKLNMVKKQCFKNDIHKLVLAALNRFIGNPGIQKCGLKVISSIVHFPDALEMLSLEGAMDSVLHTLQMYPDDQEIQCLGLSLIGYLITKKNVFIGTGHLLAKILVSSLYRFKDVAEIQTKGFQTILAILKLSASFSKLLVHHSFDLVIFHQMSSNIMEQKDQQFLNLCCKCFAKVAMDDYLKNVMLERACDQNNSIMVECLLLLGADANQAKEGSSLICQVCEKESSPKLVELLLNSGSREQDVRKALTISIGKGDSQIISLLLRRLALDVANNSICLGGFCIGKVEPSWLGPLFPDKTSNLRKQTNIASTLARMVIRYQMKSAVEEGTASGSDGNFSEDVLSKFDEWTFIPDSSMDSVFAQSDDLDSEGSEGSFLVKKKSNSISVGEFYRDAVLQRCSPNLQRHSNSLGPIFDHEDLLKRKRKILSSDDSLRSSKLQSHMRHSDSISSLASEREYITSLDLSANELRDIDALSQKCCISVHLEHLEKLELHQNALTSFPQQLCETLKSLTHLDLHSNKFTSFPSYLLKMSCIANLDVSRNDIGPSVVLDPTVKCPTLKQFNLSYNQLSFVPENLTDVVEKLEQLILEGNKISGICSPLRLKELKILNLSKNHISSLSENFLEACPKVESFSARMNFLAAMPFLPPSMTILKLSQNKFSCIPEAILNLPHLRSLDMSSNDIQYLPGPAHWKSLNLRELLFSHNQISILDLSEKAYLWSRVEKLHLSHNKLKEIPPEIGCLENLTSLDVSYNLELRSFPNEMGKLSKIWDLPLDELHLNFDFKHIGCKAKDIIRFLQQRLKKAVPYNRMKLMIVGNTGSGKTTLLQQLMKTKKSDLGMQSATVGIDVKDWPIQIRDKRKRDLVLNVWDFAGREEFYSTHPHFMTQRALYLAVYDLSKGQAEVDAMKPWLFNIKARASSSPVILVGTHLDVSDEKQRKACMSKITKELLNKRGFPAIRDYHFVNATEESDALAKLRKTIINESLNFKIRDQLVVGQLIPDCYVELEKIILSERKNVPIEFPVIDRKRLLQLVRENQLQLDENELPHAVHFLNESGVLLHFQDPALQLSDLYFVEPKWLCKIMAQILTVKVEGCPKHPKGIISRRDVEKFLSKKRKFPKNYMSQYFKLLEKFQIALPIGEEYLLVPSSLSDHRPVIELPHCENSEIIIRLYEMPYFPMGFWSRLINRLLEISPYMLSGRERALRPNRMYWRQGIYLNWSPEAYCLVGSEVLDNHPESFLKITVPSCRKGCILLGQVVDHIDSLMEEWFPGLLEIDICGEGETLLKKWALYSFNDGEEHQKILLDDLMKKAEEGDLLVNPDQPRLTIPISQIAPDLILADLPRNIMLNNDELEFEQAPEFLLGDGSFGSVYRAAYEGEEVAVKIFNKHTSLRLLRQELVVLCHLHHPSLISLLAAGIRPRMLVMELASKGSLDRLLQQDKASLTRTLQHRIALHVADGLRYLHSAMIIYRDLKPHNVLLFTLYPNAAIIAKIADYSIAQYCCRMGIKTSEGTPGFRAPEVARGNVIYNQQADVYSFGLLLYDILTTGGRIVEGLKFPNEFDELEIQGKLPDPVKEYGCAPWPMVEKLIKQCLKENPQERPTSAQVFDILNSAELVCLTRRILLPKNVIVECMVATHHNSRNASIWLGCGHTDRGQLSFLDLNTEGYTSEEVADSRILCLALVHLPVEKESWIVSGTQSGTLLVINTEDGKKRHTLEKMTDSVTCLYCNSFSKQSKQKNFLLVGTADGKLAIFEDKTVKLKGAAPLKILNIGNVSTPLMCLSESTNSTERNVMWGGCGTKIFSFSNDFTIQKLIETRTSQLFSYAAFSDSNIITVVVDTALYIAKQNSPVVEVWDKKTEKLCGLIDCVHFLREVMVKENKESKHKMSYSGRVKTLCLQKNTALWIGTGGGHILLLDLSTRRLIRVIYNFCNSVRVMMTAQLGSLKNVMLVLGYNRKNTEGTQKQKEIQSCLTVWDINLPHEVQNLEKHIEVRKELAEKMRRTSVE

Substance “[5-Chloro-2-hydroxy-4-(4-methylamino-5-trifluoromethyl-pyrimidin-2-ylamino)-phenyl]-morpholin-4-yl-methanone [Compound 10]” showed a negative-log Ki (pKi) of 8.50.
